From patent EP1806135A2, “The use of a protein tyrosine inhibitor such as genistein in the treatment of diabetic retinopathy or ocular inflammation” (THE JOHNS HOPKINS UNIVERSITY SCHOOL OF MEDICINE, priority 1998, dated 1999) come the findings set out here.

The subject of one data set is pigmented rabbits. Kind of data set: Ocular inflammation (vitreous cavity haze) after intravitreal injection of homologous dermal fibroblasts. Type of data set: in vivo, rabbit. Conditions: graded 3 days after fibroblast injection. How it is done: The principles of laboratory animal care (NIH publication No. 86-23, revised 1985) were followed. For all studies, pigmented rabbits, weighing 2.5-3 kg were used. The animals were anesthetized with a cocktail of ketamine (25 mg/kg) and xylazine (5 mg/kg), and the pupils were dilated with topical 1 % tropicamide and 0.5% phenylephrine.
Vitreous liquefaction was caused by injection of SF6 gas. After an anterior chamber paracentesis (0.1 ml), pure SF6 gas (0.3 ml) was injected. The 30-gauge needle was inserted inferiorly in order to maximize the vitreous liquefaction.
Rabbit dermal fibroblasts were obtained from rabbit rump biopsy material prepared under sterile conditions: Primary cultures were incubated in Dulbecco's modified Eagle's medium (DMEM) with 30% calf serum, antibiotics (penicillin G sodium, streptomycin sulfate) and antimycotics (amphotericin B) under a humid atmosphere of 5% carbon dioxide in air for 72 hours. The medium was then changed to DMEM with 10% calf serum, antibiotics and antimycotics as above. The cultures were passaged weekly. Cells were harvested by incubating them with 3.5 ml of 0.04% trypsin for 4 minutes and collecting the cells in stop media. The dispersed cells were centrifuged at 1,000 rpm for 5 minutes and resuspended in 1 ml of phosphate-buffered saline. After cell counts of a 0.05 ml aliquot, the suspension was diluted to achieve a final concentration of 2.5x10^4 cells in a 0.1 ml of phosphate-buffered saline.
Fourteen days after the injection of SF6 gas, a 30-gauge needle was inserted 3 mm posterior to the corneoscleral limbus in the superonasal quadrant under microscopic control. With the bevel of the needle directed upward, 2.5x10^4 homologous rabbit dermal fibroblasts suspended in 0.1 ml sterile phosphate-buffered saline were injected just in front of the optic nerve head. This was performed in both eyes of all rabbits. The rabbits were immediately placed on their backs for 1 hour to allow the cells to settle over the vitreous surface. […]

A further data set relates to retina. Kind of data set: Retinal toxicity by electroretinography after oral administration. Format: in vivo. Conditions: orally administered, 75 mg/kg/day to 300 mg/kg/day over a period of six months, Zucker diabetic fatty rats. An excerpt:
(§1) An advantage of genistein is that it is very safe and efficacious. […] Also, no effect of orally administered genistein was found with respect to the weight of the ovaries and the uterus in female rats.

A short description of data set [1]: Food intake, body weight and organ weights after oral administration. Format: in vivo, rats.
Excerpt: as §1

The next data set relates to 67 kDa band. Kind of data set: Total protein profile of retinal homogenate (gel electrophoresis, Coomassie brilliant blue staining). Type of data set: in vivo. Conditions: 50 mg/kg intraperitoneally, repeated after two hours; retina taken 24 hours later; Zucker diabetic fatty rat. An excerpt:
(§2) Six pair of litter mates of Zucker rats, i.e., six male retired breeder Zucker diabetic fatty (ZDF, fa/fa) rats and six male retired breeder lean Zucker (fa/+) rats, were obtained (Genetic Models, Inc., Indianapolis, IN). The Zucker diabetic fatty rat develops a microvascular retinopathy involving basement membrane thickening of retinal capillaries, pericyte loss, capillary hypercellularity, and increased endothelial intercellular junctions (Danis et al., Invest. Ophthalmol. Vis. Sci. 34:2367-2371 (1993); and Dosso et al., Diabetologia 33:137-144 (1990)). The microvascular changes known to occur in the Zucker diabetic fatty rats are associated with the elevated levels of VEGF and platelet-derived growth factor (PDGF) and with activation of PTK pathways, especially pathways that include phosphatidylinositol-3 kinase (PI3-K) and mitogen-activated protein kinase (MAPK). Each pair of litter mates was between six and seven months of age. Rats were fed with a diet of Purina 5008 rat chow. […] The average blood glucose value was more than 500 mg/dl for the Zucker diabetic fatty rats and 120 mg/dl for the control lean rats as measured by glucose oxidase assay at the time of death (Danis et al. (1993), supra). […]
Protein concentrations were measured by the Pierce BCA method. […]

The test system of data set [2] is tyrosine phosphorylated proteins. Kind of data set: Western immunoblot analysis of tyrosine phosphorylated proteins in the retina. Format: in vivo, Zucker diabetic fatty rat. Conditions: 50 mg/kg intraperitoneally, repeated after two hours; diabetic rats compared with the non-treated group. An excerpt: (§3) Six pair of litter mates of Zucker rats, i.e., six male retired breeder Zucker diabetic fatty (ZDF, fa/fa) rats and six male retired breeder lean Zucker (fa/+) rats, were obtained (Genetic Models, Inc., Indianapolis, IN). The Zucker diabetic fatty rat develops a microvascular retinopathy involving basement membrane thickening of retinal capillaries, pericyte loss, capillary hypercellularity, and increased endothelial intercellular junctions (Danis et al., Invest. Ophthalmol. Vis. Sci. 34:2367-2371 (1993); and Dosso et al., Diabetologia 33:137-144 (1990)). The microvascular changes known to occur in the Zucker diabetic fatty rats are associated with the elevated levels of VEGF and platelet-derived growth factor (PDGF) and with activation of PTK pathways, especially pathways that include phosphatidylinositol-3 kinase (PI3-K) and mitogen-activated protein kinase (MAPK). Each pair of litter mates was between six and seven months of age. Rats were fed with a diet of Purina 5008 rat chow. The animals were treated in accordance with The Association for Research in Vision and Ophthalmology (ARVO) Statement for the Use of Animals in Ophthalmic and Vision Research. The average blood glucose value was more than 500 mg/dl for the Zucker diabetic fatty rats and 120 mg/dl for the control lean rats as measured by glucose oxidase assay at the time of death (Danis et al. (1993), supra). […]
A general note: Immunoblotting shows a protein as a band on a membrane.

The test system of another data set is PI3-K. Kind of data set: Western immunoblot analysis of immunoprecipitated tyrosine phosphorylated proteins in the retina: PI3-K. Type of data set: in vivo, Zucker diabetic fatty rat. Conditions: 50 mg/kg intraperitoneally, repeated after two hours; especially in the diabetic rat.
Excerpt: as §2, with “(MAPK).” for “(MAPK). Each pair of litter mates was between six and seven months of age. Rats were fed with a diet of Purina 5008 rat chow.”
(§4) The retinal tissue samples were added to immunoprecipitation buffer (1 % Triton X-100, 150 mM NaCl, 10 mM Tris, pH 7.4, 1 mM EGTA, 0.2 mM sodium vanadate, 0.2 mM PMSF, 0.5 % NP-40) and homogenized. […] Protein concentrations were measured by the Pierce BCA method. […]

In another data set the test system is MAPK. Kind of data set: Western immunoblot analysis of immunoprecipitated tyrosine phosphorylated proteins in the retina: MAPK. Type of data set: in vivo, Zucker diabetic fatty rat. Conditions: 50 mg/kg intraperitoneally, repeated after two hours; treated group compared with the non-treated animals group.
Excerpt: as §2, with “(MAPK).” for “(MAPK). Each pair of litter mates was between six and seven months of age. Rats were fed with a diet of Purina 5008 rat chow.”
as §4

Data set [3] concerns PCNA. Kind of data set: Western immunoblot analysis of PCNA in the retina. Type of data set: in vivo. Conditions: 50 mg/kg intraperitoneally, repeated after two hours; Zucker diabetic fatty rat retina; not down to the lean control level.
Excerpt: as §3

The test system of data set [4] is PCNA. Kind of data set: Immunohistochemical analysis of PCNA in the retina. Format: in vivo. Conditions: genistein treated diabetic rats compared with untreated Zucker diabetic fatty rats. How it is done: Two pairs of rats were used for immunohistochemical analysis of PCNA in the retina. Under deep anesthesia with ketamine and xylazine, the four rats were perfused transcardially with 0.1 M phosphate-buffered saline (PBS; pH 7.4) containing 1 mM orthovanadate, followed by perfusion of 2 % paraformaldehyde in 0.1 M PBS for fixation. The eyes were then removed and immersed in the same fixative for 30 min. The anterior segments were removed and the posterior segments were transferred into a graded sucrose solution from 5 % to 15 % for 2 hrs and incubated in 20 % sucrose solution overnight at 4°C. After cryoprotection, the eyes were molded in O.C.T. compound (Miles, Inc., Elkhart, IN) and frozen in isopentane with dry ice. The posterior segments were cut into 8 µm sections.
The sections were treated with 3 % peroxide to block intrinsic peroxidase, and incubated with 2 % normal horse serum for 20 min. After rinsing in 0.1 M PBS three times, the sections were incubated overnight at 4°C with anti-PCNA antibody (1:1,000 dilution). After the incubation, the sections were rinsed in 0.1 M PBS, and incubated with biotinylated anti-mouse IgG antibody (Vector Laboratories, Inc., Burlingame, CA; 1:500 dilution) for 30 min at room temperature, and then incubated with […] streptavidin (Kirkegaad & Perry Laboratories, Inc., Gaithersburg, MD; 1:500 dilution). […]

[5] abbreviates: oral administration, male and female rats.
Setting [6] is: orally administered, female rats.

As to `COC1C=CC=C(C)C(=O)NC2=CC(=O)C=C(C2=O)C(OC)C(C)CC(OC)C(OC)C(C)C=C(C)C1OC(N)=O` (centres unmarked) [HA, Herbimycin A], the “eyes with severe inflammation (vitreous haze)” value was 0% in the data set on pigmented rabbits (group 1: 23 µg intravitreally 1 hour (prophylactic) after fibroblast injection, control eyes 47.1%, p<0.01); 10% in the data set with pigmented rabbits (group 2: 23 µg intravitreally 2 days (therapeutic) after fibroblast injection, control eyes 50%, p>0.05); 22.2% in the data set with pigmented rabbits (group 3: 11.5 µg intravitreally at 1 hour and again 2 days after fibroblast injection, control eyes 77.8%, p<0.05).

As to `O=c1c(-c2ccc(O)cc2)coc2cc(O)cc(O)c12` [genistein, 5,7-dihydroxy-3-(4-hydroxyphenyl)-4H-1-benzopyran-4-one], the “toxicity to the retina as measured by electroretinography” value with retina is “nontoxic to the retina”. For the same molecule, in data set [1] (setting [5]), the body weight entry is recorded as “no effect” and the food intake result is listed as “no effect”. Moreover, in [1] (setting [6]), the “weight of the ovaries” value was “no effect” and the “weight of the uterus” value is “no effect”. Also, the “amount of staining of the 67 kDa band in total protein profiles” value with 67 kDa band is listed as “reduced”. The “staining of tyrosine phosphorylated proteins at 50, 66, 97 and 116 kDa” value in data set [2] is given as “decreased staining at each molecular weight”. For the same molecule, the “tyrosine phosphorylated PI3-K stained band at 85 kDa” value with PI3-K is given as “reduced”. Besides, in the data set with MAPK, the “level of tyrosine phosphorylated MAPK at 44 kDa” value is listed as “decreased”. In addition, the “level of PCNA at 36 kDa” value with PCNA [3] is reported as “reduced this increase”. Moreover, the “PCNA immunopositive cells in the retina” value with PCNA [4] was “fewer immunopositive cells were detected”.
